Where a name gives a salt, the structure may show the parent alone.
Legend:
[1] = biological target: T1, AAK1 (Homo sapiens, UniProt Q2M2I8); assay: P81 filter plate assay; assay type: biochemical; settings: full-length human AAK1, Mu2 substrate
T1 construct: HA; expressed in transfected cells; host or cells: HEK293F

[2] = biological target: T1, AAK1; assay: HEK281 cell-based assay (phospho-mu2 Western blot in transfected HEK293F cells); settings: 3 hours incubation, read-out: CBA IC50
How it was run: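 HEK293F cells co-transfected with full-length human AAK1/HA and Flag/AP2M1 were treated next day with 5 compound concentrations (3-fold dilutions) in DMEM+0.5% FBS for 3 hours at 37° C. Lysates were Western blotted for phospho-mu2, with total mu2 detected by anti-Flag.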

T1 sequence (Q2M2I8 1-863 isoform Q2M2I8-2): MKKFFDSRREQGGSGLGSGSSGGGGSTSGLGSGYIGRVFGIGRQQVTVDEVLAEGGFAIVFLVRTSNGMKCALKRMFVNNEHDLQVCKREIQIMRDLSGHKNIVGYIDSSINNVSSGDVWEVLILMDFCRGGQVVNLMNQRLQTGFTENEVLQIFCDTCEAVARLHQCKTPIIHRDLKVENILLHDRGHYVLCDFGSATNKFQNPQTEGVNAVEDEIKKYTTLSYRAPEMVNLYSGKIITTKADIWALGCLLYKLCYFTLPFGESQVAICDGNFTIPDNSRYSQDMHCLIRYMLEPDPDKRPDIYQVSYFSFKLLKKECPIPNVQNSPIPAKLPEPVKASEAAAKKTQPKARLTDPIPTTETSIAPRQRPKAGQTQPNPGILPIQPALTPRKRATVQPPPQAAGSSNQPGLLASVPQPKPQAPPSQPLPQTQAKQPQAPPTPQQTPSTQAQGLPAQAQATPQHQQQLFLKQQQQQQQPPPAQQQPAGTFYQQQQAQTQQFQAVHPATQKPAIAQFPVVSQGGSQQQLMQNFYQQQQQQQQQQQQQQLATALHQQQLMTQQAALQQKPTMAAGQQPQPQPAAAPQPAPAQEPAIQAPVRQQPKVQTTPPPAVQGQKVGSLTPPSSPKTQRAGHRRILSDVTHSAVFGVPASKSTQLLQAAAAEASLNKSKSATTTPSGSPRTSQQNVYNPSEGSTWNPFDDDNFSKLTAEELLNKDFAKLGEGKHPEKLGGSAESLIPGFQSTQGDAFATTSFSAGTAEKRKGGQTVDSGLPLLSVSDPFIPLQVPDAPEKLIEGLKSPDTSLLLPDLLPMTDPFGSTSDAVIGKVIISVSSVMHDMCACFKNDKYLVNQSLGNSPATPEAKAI

SMILES | melting point | IC50 [1] | IC50 [2]
CN(CCNc1ccc2ncc(-c3ccc(C(N)=O)cc3)n2n1)C(=O)NC(C)(C)C | 154 to 155 °C | – | –
CC(C)OC(=O)N1CCN(c2ccc3ncc(-c4ccccc4)n3n2)CC1 (as salt: hydrochloride) [4-(3-Phenyl-imidazo[1,2-b]pyridazin-6-yl)-piperazine-1-carboxylic acid isopropyl ester] | 232 to 233 °C (dec.) | – | –
COc1cnccc1-c1cnc2ccc(N3CCN(C(=O)CC(C)(C)C)CC3)nn12 (as salt: hydrochloride) [Example 5.6.114, 1-(4-(3-(3-Methoxypyridin-4-yl)imidazo[1,2-b]pyridazin-6-yl)piperazin-1-yl)-3,3-dimethylbutan-1-one] | 211 to 212 °C (dec.) | – | –
COc1ccccc1-c1cnc2ccc(N3CCN(C(=O)OC(C)C)CC3)nn12 (as salt: hydrochloride) [Example 5.6.115, 4-[3-(2-Methoxy-phenyl)-imidazo[1,2-b]pyridazin-6-yl]-piperazine-1-carboxylic acid isopropyl ester] | 243 to 244 °C (dec.) | – | –
CC(C)(C)C(=O)N1CCN(c2ccc3ncc(-c4ccccc4)n3n2)CC1 (as salt: hydrochloride) [Example 5.6.125, 2,2-Dimethyl-1-[4-(3-phenyl-imidazo[1,2-b]pyridazin-6-yl)-piperazin-1-yl]-propan-1-one] | 277 to 278 °C (dec.) | – | –
CC(C)OC(=O)N1CCN(c2ccc3ncc(-c4ccccc4OC(C)C)n3n2)CC1 (as salt: hydrochloride) [Example 5.6.145, 4-[3-(2-Isopropoxy-phenyl)-imidazo[1,2-b]pyridazin-6-yl]-piperazine-1-carboxylic acid isopropyl ester] | 216 to 217 °C (dec.) | – | –
CC(C)(C)NC(=O)N1CCN(c2ccc3ncc(-c4ccccc4)n3n2)CC1 (as salt: hydrochloride) [N-(tert-Butyl)-4-(3-phenylimidazo[1,2-b]pyridazin-6-yl)piperazine-1-carboxamide] | 210 to 211 °C (dec.) | – | –
CC(C)OC(=O)N1CCN(c2ccc3ncc(-c4ccccc4OC(F)F)n3n2)CC1 [isopropyl 4-(3-(2-(difluoromethoxy)phenyl)imidazo[1,2-b]pyridazin-6-yl)piperazine-1-carboxylate] | – | ≤ 10 nM | ≤ 100 nM
CC(C)OC(=O)N1CCN(c2ccc3ncc(-c4cccnc4OC(F)F)n3n2)CC1 [isopropyl 4-(3-(2-(difluoromethoxy)pyridin-3-yl)imidazo[1,2-b]pyridazin-6-yl)piperazine-1-carboxylate] | – | ≤ 10 nM | ≤ 100 nM
CCOc1ccccc1-c1cnc2ccc(N3CCN(C(=O)OC(C)C)CC3)nn12 [isopropyl 4-(3-(2-ethoxyphenyl)imidazo[1,2-b]pyridazin-6-yl)piperazine-1-carboxylate] | – | ≤ 10 nM | ≤ 100 nM
CCOc1ncccc1-c1cnc2ccc(N3CCN(C(=O)OC(C)C)CC3)nn12 [isopropyl 4-(3-(2-ethoxypyridin-3-yl)imidazo[1,2-b]pyridazin-6-yl)piperazine-1-carboxylate] | – | ≤ 10 nM | ≤ 10 nM
COc1cccc(-c2cnc3ccc(N4CCN(C(=O)OC(C)C)CC4)nn23)c1F [isopropyl 4-(3-(2-fluoro-3-methoxyphenyl)imidazo[1,2-b]pyridazin-6-yl)piperazine-1-carboxylate] | – | ≤ 10 nM | ≤ 100 nM
CC(C)OC(=O)N1CCN(c2ccc3ncc(-c4ccccc4F)n3n2)CC1 [isopropyl 4-(3-(2-fluorophenyl)imidazo[1,2-b]pyridazin-6-yl)piperazine-1-carboxylate] | – | ≤ 10 nM | ≤ 100 nM
COc1nc(C)ccc1-c1cnc2ccc(N3CCN(C(=O)OC(C)C)CC3)nn12 [isopropyl 4-(3-(2-methoxy-6-methylpyridin-3-yl)imidazo[1,2-b]pyridazin-6-yl)piperazine-1-carboxylate] | – | ≤ 10 nM | ≤ 10 nM
COc1ccccc1-c1cnc2ccc(N3CCN(C(=O)OC(C)C)CC3)nn12 [isopropyl 4-(3-(2-methoxyphenyl)imidazo[1,2-b]pyridazin-6-yl)piperazine-1-carboxylate] | – | ≤ 10 nM | ≤ 10 nM
COc1ncccc1-c1cnc2ccc(N3CCN(C(=O)OC(C)C)CC3)nn12 [isopropyl 4-(3-(2-methoxypyridin-3-yl)imidazo[1,2-b]pyridazin-6-yl)piperazine-1-carboxylate] | – | ≤ 10 nM | ≤ 10 nM
CC(C)OC(=O)N1CCN(c2ccc3ncc(-c4ccc[nH]c4=O)n3n2)CC1 [isopropyl 4-(3-(2-oxo-1,2-dihydropyridin-3-yl)imidazo[1,2-b]pyridazin-6-yl)piperazine-1-carboxylate] | – | ≤ 10 nM | ≤ 100 nM
CC(C)OC(=O)N1CCN(c2ccc3ncc(-c4cccc(Cl)c4)n3n2)CC1 [isopropyl 4-(3-(3-chlorophenyl)imidazo[1,2-b]pyridazin-6-yl)piperazine-1-carboxylate] | – | ≤ 10 nM | ≤ 1000 nM
CC(C)OC(=O)N1CCN(c2ccc3ncc(-c4ccc(CN)cc4)n3n2)CC1 [isopropyl 4-(3-(4-(aminomethyl)phenyl)imidazo[1,2-b]pyridazin-6-yl)piperazine-1-carboxylate] | – | ≤ 10 nM | ≤ 10 nM
COc1ncc(F)cc1-c1cnc2ccc(N3CCN(C(=O)OC(C)C)CC3)nn12 [isopropyl 4-(3-(5-fluoro-2-methoxypyridin-3-yl)imidazo[1,2-b]pyridazin-6-yl)piperazine-1-carboxylate] | – | ≤ 10 nM | ≤ 10 nM
O=C(N1CCCCC1)N1CCN(c2ccc3ncc(-c4ccccn4)n3n2)CC1 [piperidin-1-yl(4-(3-(pyridin-2-yl)imidazo[1,2-b]pyridazin-6-yl)piperazin-1-yl)methanone] | – | ≤ 10 nM | ≤ 100 nM
COc1ccccc1-c1cnc2ccc(N3CCC(N(C)C(=O)OC(C)(C)C)C3)nn12 (centres unmarked) [tert-butyl (1-(3-(2-methoxyphenyl)imidazo[1,2-b]pyridazin-6-yl)pyrrolidin-3-yl)(methyl)carbamate] | – | ≤ 10 nM | ≤ 1000 nM
CN(C(=O)OC(C)(C)C)C1CCN(c2ccc3ncc(-c4ccccc4)n3n2)C1 (centres unmarked) [tert-butyl methyl(1-(3-phenylimidazo[1,2-b]pyridazin-6-yl)pyrrolidin-3-yl)carbamate] | – | ≤ 100 nM | ≤ 100 nM
COc1ncccc1-c1cnc2ccc(N3CC[C@H](N(C)C(=O)OC(C)(C)C)C3)nn12 [{(S)-1-[3-(2-Methoxy-pyridin-3-yl)-imidazo[1,2-b]pyridazin-6-yl]-pyrolidin-3-yl}-methyl-carbamic acid tert-butyl ester] | – | ≤ 10 nM | ≤ 100 nM

Continued, values first:

melting point | IC50 [1] | IC50 [2] | SMILES
217 to 218 °C (dec.) | – | – | COc1cnccc1-c1cnc2ccc(N3CCN(C(=O)OC(C)C)CC3)nn12 (as salt: hydrochloride) [Example 5.6.103, 4-[3-(3-Methoxy-pyridin-4-yl)-imidazo[1,2-b]pyridazin-6-yl]-piperazine-1-carboxylic acid isopropyl ester]
299 to 300 °C | – | – | FC(F)(F)CCCNc1ccc2ncc(-c3cccc4c3OCC4)n2n1 (as salt: hydrochloride) [Example 5.6.106, [3-(2,3-Dihydro-benzofuran-7-yl)-imidazo[1,2-b]pyridazin-6-yl]-(4,4,4-trifluoro-butyl)-amine]
195 to 196 °C (dec.) | – | – | CC(C)OC(=O)N1CCN(c2ccc3ncc(-c4ccncc4)n3n2)CC1 (as salt: hydrochloride) [Example 5.6.108, 4-(3-Pyridin-4-yl-imidazo[1,2-b]pyridazin-6-yl)-piperazine-1-carboxylic acid isopropyl ester]
179 to 181 °C (dec.) | – | – | COc1ncccc1-c1cnc2ccc(N3CCN(C(=O)OC(C)C)CC3)nn12 (as salt: hydrochloride) [Example 5.6.151, 4-[3-(2-Methoxy-pyridin-3-yl)-imidazo[1,2-b]pyridazin-6-yl]-piperazine-1-carboxylic acid isopropyl ester]
– | ≤ 10 nM | ≤ 100 nM | COc1ccc(OC)c(-c2cnc3ccc(N4CCN(C(=O)OC(C)C)CC4)nn23)c1 [isopropyl 4-(3-(2,5-dimethoxyphenyl)imidazo[1,2-b]pyridazin-6-yl)piperazine-1-carboxylate]
– | ≤ 10 nM | ≤ 100 nM | COc1cc(-c2cnc3ccc(N4CCN(C(=O)OC(C)C)CC4)nn23)ccn1 [isopropyl 4-(3-(2-methoxypyridin-4-yl)imidazo[1,2-b]pyridazin-6-yl)piperazine-1-carboxylate]
– | ≤ 10 nM | ≤ 100 nM | COc1cccc(-c2cnc3ccc(N4CCN(C(=O)OC(C)C)CC4)nn23)c1 [isopropyl 4-(3-(3-methoxyphenyl)imidazo[1,2-b]pyridazin-6-yl)piperazine-1-carboxylate]
– | ≤ 10 nM | ≤ 10 nM | COc1cc(C)c(F)cc1-c1cnc2ccc(N3CCN(C(=O)OC(C)C)CC3)nn12 [isopropyl 4-(3-(5-fluoro-2-methoxy-4-methylphenyl)imidazo[1,2-b]pyridazin-6-yl)piperazine-1-carboxylate]
– | ≤ 10 nM | ≤ 10 nM | COc1ccc(F)cc1-c1cnc2ccc(N3CCN(C(=O)OC(C)C)CC3)nn12 [isopropyl 4-(3-(5-fluoro-2-methoxyphenyl)imidazo[1,2-b]pyridazin-6-yl)piperazine-1-carboxylate]
– | ≤ 10 nM | ≤ 100 nM | COc1ncccc1-c1cnc2ccc(N3CCC(N(C)C(=O)OC(C)(C)C)C3)nn12 (centres unmarked) [tert-butyl (1-(3-(2-methoxypyridin-3-yl)imidazo[1,2-b]pyridazin-6-yl)pyrrolidin-3-yl)(methyl)carbamate]
– | ≤ 10 nM | ≤ 10 nM | COc1ncccc1-c1cnc2ccc(N3CC[C@H](N(C)C(=O)OC(C)C)C3)nn12 [{(S)-1-[3-(2-Methoxy-pyridin-3-yl)-imidazo[1,2-b]pyridazin-6-yl]-pyrrolidin-3-yl}-methyl-carbamic acid isopropyl ester]

— patent US8969565B2, “Imidazo[1,2-b]pyridazine-based compounds, compositions comprising them, and methods of their use” (Lexicon Pharmaceuticals, Inc., priority 2012, dated 2015)
